According to article PMC12586182 (Frontiers in Oncology, 2025):

What was measured:
[1] = target: activated B-RAF (Homo sapiens, UniProt P15056); assay: Surface plasmon resonance binding (Biacore 1S+)
[2] = target: T1, MEK1 (Homo sapiens, UniProt Q02750); design: method as in Reiff et al. [15]; settings: 1 mmol/L ATP; ref Reiff et al. [15]; read-out: IC50 in an enzyme assay for MEK1; cited from earlier work
T1 construct: purchased Carna Biosciences, Inc. 07–41

[3] = tested on: RD-ES; assay: Cell viability assay (ATPlite); format: cell-based; settings: Homo sapiens; RD-ES cell line, 72 hours incubation
How it was run: (§1)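 Cells grew 24 h, then received 9-point √10-fold compound series in duplicate (0.4% DMSO final) for 72 h. ATP content was read by ATPlite luminescence and normalized to vehicle controls as % viability. IC50 came from a four-parameter logistic fit; curves with F-value above 1.5 were invalidated, with IC50 then set at the top concentration.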

[4] = tested on: THP-1; assay: Cell viability assay (ATPlite); format: cell-based; settings: Homo sapiens; THP-1 cell line, 72 hours incubation
How it was run: as §1

[5] = tested on: HCT 116; assay: Cell viability assay (ATPlite); format: cell-based; settings: Homo sapiens; HCT 116 cell line, 72 hours incubation
How it was run: as §1

[6] = tested on: BxPC-3; assay: Cell viability assay (ATPlite); format: cell-based; settings: Homo sapiens; BxPC-3 cell line, 72 hours incubation
How it was run: as §1

[7] = tested on: HEC-251; assay: Cell viability assay (ATPlite); format: cell-based; settings: Homo sapiens; HEC-251 cell line, 72 hours incubation
How it was run: as §1

[8] = tested on: DU145; assay: Cell viability assay (ATPlite); format: cell-based; settings: Homo sapiens, DU-145; DU145 cell line, 72 hours incubation
How it was run: as §1

[9] = tested on: T24; assay: Cell viability assay (ATPlite); format: cell-based; settings: Homo sapiens, T-24; T24 cell line, 72 hours incubation
How it was run: as §1

[10] = tested on: VA-ES-BJ; assay: Cell viability assay (ATPlite); format: cell-based; settings: Homo sapiens; VA-ES-BJ cell line, 72 hours incubation
How it was run: as §1

[11] = tested on: NCI-H226; assay: Cell viability assay (ATPlite); format: cell-based; settings: Homo sapiens; NCI-H226 cell line, 72 hours incubation
How it was run: as §1

[12] = tested on: OVCAR-3; assay: Cell viability assay (ATPlite); format: cell-based; settings: Homo sapiens; OVCAR-3 cell line, 72 hours incubation
How it was run: as §1

[13] = tested on: NCC-IT; assay: Cell viability assay (ATPlite); format: cell-based; settings: Homo sapiens, NCCIT; NCC-IT cell line, 72 hours incubation
How it was run: as §1

[14] = tested on: NCI-H661; assay: Cell viability assay (ATPlite); format: cell-based; settings: Homo sapiens; NCI-H661 cell line, 72 hours incubation
How it was run: as §1

[15] = tested on: J82; assay: Cell viability assay (ATPlite); format: cell-based; settings: Homo sapiens; J82 cell line, 72 hours incubation
How it was run: as §1

[16] = tested on: SNU-16; assay: Cell viability assay (ATPlite); format: cell-based; settings: Homo sapiens; SNU-16 cell line, 72 hours incubation
How it was run: as §1

[17] = tested on: SW684; assay: Cell viability assay (ATPlite); format: cell-based; settings: Homo sapiens; SW684 cell line, 72 hours incubation
How it was run: as §1

[18] = tested on: AP-1060; assay: Cell viability assay (ATPlite); format: cell-based; settings: Homo sapiens; AP-1060 cell line, 72 hours incubation
How it was run: as §1

[19] = tested on: NCI-H2452; assay: Cell viability assay (ATPlite); format: cell-based; settings: Homo sapiens; NCI-H2452 cell line, 72 hours incubation
How it was run: as §1

[20] = tested on: NCI-H1650; assay: Cell viability assay (ATPlite); format: cell-based; settings: Homo sapiens; NCI-H1650 cell line, 72 hours incubation
How it was run: as §1

[21] = tested on: RPMI-7951; assay: Cell viability assay (ATPlite); format: cell-based; settings: Homo sapiens; RPMI-7951 cell line, 72 hours incubation
How it was run: as §1

[22] = tested on: A-388; assay: Cell viability assay (ATPlite); format: cell-based; settings: Homo sapiens; A-388 cell line, 72 hours incubation
How it was run: as §1

[23] = tested on: 786-O; assay: Cell viability assay (ATPlite); format: cell-based; settings: Homo sapiens, 786-0; 786-O cell line, 72 hours incubation
How it was run: as §1

[24] = tested on: SW780; assay: Cell viability assay (ATPlite); format: cell-based; settings: Homo sapiens; SW780 cell line, 72 hours incubation
How it was run: as §1

[25] = tested on: MKN45; assay: Cell viability assay (ATPlite); format: cell-based; settings: Homo sapiens, MKN-45; MKN45 cell line, 72 hours incubation
How it was run: as §1

[26] = tested on: DB; assay: Cell viability assay (ATPlite); format: cell-based; settings: Homo sapiens; DB cell line, 72 hours incubation
How it was run: as §1

[27] = tested on: LoVo; assay: Cell viability assay (ATPlite); format: cell-based; settings: Homo sapiens; LoVo cell line, 72 hours incubation
How it was run: as §1

[28] = tested on: SK-N-MC; assay: Cell viability assay (ATPlite); format: cell-based; settings: Homo sapiens; SK-N-MC cell line, 72 hours incubation
How it was run: as §1

[29] = tested on: SW48; assay: Cell viability assay (ATPlite); format: cell-based; settings: Homo sapiens; SW48 cell line, 72 hours incubation
How it was run: as §1

Chain of activated B-RAF (P15056 whole entry): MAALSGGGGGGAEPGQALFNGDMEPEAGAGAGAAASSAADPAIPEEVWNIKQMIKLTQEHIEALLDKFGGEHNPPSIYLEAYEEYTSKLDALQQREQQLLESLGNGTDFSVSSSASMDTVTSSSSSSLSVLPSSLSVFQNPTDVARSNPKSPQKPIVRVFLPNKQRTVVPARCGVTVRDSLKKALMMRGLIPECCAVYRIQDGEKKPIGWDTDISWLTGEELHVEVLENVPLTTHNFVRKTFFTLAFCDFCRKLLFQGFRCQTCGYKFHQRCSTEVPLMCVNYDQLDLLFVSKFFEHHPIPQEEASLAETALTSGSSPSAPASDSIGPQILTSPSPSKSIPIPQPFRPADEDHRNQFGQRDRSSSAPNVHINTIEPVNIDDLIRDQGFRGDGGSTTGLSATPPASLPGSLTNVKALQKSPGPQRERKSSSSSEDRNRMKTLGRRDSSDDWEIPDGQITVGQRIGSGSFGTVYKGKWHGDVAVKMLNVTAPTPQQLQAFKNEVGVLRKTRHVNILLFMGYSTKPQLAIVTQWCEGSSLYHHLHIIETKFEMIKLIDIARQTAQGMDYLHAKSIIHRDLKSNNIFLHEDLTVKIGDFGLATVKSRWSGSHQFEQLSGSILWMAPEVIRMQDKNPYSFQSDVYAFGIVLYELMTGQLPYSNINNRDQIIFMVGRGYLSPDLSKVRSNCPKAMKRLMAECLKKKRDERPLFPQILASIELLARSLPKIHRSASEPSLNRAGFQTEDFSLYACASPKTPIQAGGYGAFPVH
T1 sequence (Q02750 whole entry): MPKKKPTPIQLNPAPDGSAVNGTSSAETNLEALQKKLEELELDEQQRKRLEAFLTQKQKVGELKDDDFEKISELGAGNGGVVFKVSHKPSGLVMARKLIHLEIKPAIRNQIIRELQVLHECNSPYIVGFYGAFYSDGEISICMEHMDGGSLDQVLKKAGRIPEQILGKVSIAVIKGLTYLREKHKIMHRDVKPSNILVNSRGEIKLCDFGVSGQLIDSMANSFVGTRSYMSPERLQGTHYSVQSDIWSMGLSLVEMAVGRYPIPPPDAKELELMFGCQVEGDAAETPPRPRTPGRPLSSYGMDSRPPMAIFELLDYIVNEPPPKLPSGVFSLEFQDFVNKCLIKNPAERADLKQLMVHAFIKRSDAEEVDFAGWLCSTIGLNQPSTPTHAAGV

With O=C(c1ccc(Oc2ccccc2)cc1Cl)c1c[nH]c2ncnc(N[C@@H]3CC[C@@H](CO)OC3)c12 [nemtabrutinib] as the molecule, how does the “difference in affinity, MEK1 versus B-RAF” value ([1]; SPR K D B-RAF versus K D MEK1) read?
The value was 120 fold.

And the “log (kd)” value ([1]; SPR, B-RAF)?
The value was -1.26.

And the “log(ka)” value ([1]; SPR, B-RAF)?
The value was 4.66.

What about the t1/2 ([1]; SPR, B-RAF) of the same molecule?
Its t1/2 is 12.5 s.

And the IC50 [2]?
Its IC50 is 599 nM.

What about the IC50 [3] of the same molecule?
The IC50 was 4170 nM.

And the IC50 [4]?
The IC50 was 1550 nM.

And the IC50 [5]?
The IC50 was 1650 nM.

And the IC50 [6]?
Its IC50 is 2610 nM.

What about the IC50 [7] of the same molecule?
Its IC50 is 178 nM.

What about the IC50 [8] of the same molecule?
The IC50 was 1640 nM.

What about the IC50 [9] of the same molecule?
The IC50 was 2790 nM.

What about the IC50 [10] of the same molecule?
Its IC50 is 7980 nM.

And the IC50 [11]?
Its IC50 is 4620 nM.

And the IC50 [12]?
The IC50 was 578 nM.

And the IC50 [13]?
The IC50 was 4620 nM.

And the IC50 [14]?
Its IC50 is 2380 nM.

What about the IC50 [15] of the same molecule?
The IC50 was 7930 nM.

And the IC50 [16]?
Its IC50 is 1810 nM.

And the IC50 [17]?
Its IC50 is 11900 nM.

And the IC50 [18]?
Its IC50 is 736 nM.

What about the IC50 [19] of the same molecule?
The IC50 was 5460 nM.

And the IC50 [20]?
The IC50 was 9800 nM.

What about the IC50 [21] of the same molecule?
Its IC50 is 2220 nM.

And the IC50 [22]?
The IC50 was 5320 nM.

What about the IC50 [23] of the same molecule?
The IC50 was 6720 nM.

And the IC50 [24]?
Its IC50 is 2790 nM.

What about the IC50 [25] of the same molecule?
Its IC50 is 5260 nM.

And the IC50 [26]?
Its IC50 is 17300 nM.

What about the IC50 [27] of the same molecule?
The IC50 was 2360 nM.

What about the IC50 [28] of the same molecule?
Its IC50 is 7400 nM.

What about the IC50 [29] of the same molecule?
Its IC50 is 445 nM.
